Source: patent publication EP3991729A1, “USE OF AMLEXANOX IN PREPARING ANTI-HEPATITIS VIRUS DRUG” (Marine Biomedical Research Institute Of Qingdao Co., Ltd., priority 2019, dated 2020)

Legend:
hepatitis B virus [1] = assay: Mouse venous hypertension model (genotype B), core antigen (HBeAg) in peripheral blood by ELISA; assay type: in vivo, Wild-type mice (C57/B6); details: 50 mg/kg/day oral gavage, 9th day after infection, Figure 4
Protocol: . On the 9th day after infection, about 100µl/mouse of blood was harvested from the tail to separate serum. The concentration of hepatitis B virus core antigen (HBeAg) in peripheral blood was measured by ELISA. The OD value at 450nm was measured on a microplate reader.

hepatitis B virus [2] = assay: HBV replication in HepAD38 cell model, qPCR of cccDNA, core particle DNA and supernatant HBV DNA; assay type: cell-based; details: 20µM, 10µM and 5µM, HepAD38, 96 and 144 hours, Figures 10, 11, 12
Protocol: 2×10^5 HepAD38 cells that were stably expressing HBV with good growth status were seeded in collagen pretreated 6-well plates, and the corresponding concentrations of the test substances were added: final concentration of 1µM for entecavir (ETV) and a final concentration of 20µM, 10µM, and 5µM for amlexanox (AML), respectively. Two groups of controls were also set up, one with solvent only (DMF) and one with antibiotic only (tetracycline). Three replicate wells were set for all groups. After 96 hours and 144 hours of test article addition, 500 µL of cell culture supernatant was used to extract DNA from the supernatant, and the amount of HBV DNA in the supernatant was detected by qPCR. After 144h, cells were harvested and lysed in Lysis buffer A (50 mM Tris-HCl, pH 7.4, 1 mM EDTA, and 1% NP-40). The supernatant and pellet of the lysates were collected, respectively, from which DNA was extracted and quantified by quantitative PCR. Linear DNA was removed by DNA exonuclease (NEB) after DNA extraction from the cell lysate pellet, so only circular DNA (cccDNA) was examined (Figure 10). Viral DNA in the supernatant of cell lysates was defined as core particle DNA (Figure 11).

hepatitis B virus [3] = assay: HBsAg in culture supernatant of HepAD38 cells, ELISA; assay type: cell-based; details: 10µM and 5µM, HepAD38, 24h, 48h, 96h, 144h, Figure 13
Protocol: Two groups of controls were also set up, one with only solvents (DMF) and one with antibiotics (tetracycline). Three replicate wells were set up for all experiments. 500µL of culture supernatant was taken at 24h, 48h, 96h, and 144h after adding the test article for ELISA to detect HBsAg concentration (Figure 13).

293 cells = assay: Cytotoxicity test, MTT assay; assay type: cell-based; details: Homo sapiens, HEK293, 72 h, read-out: Inhibition (%) 293
Protocol: (§1) […]. Various cells in the logarithmic growth phase were seeded in 96-well plates at 6,000 cells/well and cultured for 24h. […]. The dosage of DMSO in the solvent control group was based on the maximum dose of 0.1% used in the test group, with four duplicate wells for each concentration. Cells were treated with the drug for 72h and then added with 20µL 5 mg/mL MTT, cultured at 37°C for 4h, after added 100 µ L triple solution (10% SDS, 5% isobutanol, 12 mM hydrochloric acid), 96-well cell culture plate was placed in an incubator containing 5% CO2 at 37 ± 1°C overnight. OD value at 570nm was measured on a microplate reader.
(§2) The inhibition rate of tumor cell growth was calculated according to the following formula: Inhibition rate(%) = [(OD570controlwell−OD570dosewell)/OD570controlwell] × 100. [formula]

A549 cells = assay: Cytotoxicity test, MTT assay; assay type: cell-based; details: Homo sapiens, A549, 72 h, read-out: Inhibition (%) A549
Protocol: as §1, §2

HCT-116 cells = assay: Cytotoxicity test, MTT assay; assay type: cell-based
Protocol: as §1, §2

Hela cells = assay: Cytotoxicity test, MTT assay; assay type: cell-based; details: Homo sapiens, 72 h, read-out: Inhibition (%) Hel a
Protocol: as §1, §2

HepG2 cells = assay: Cytotoxicity test, MTT assay; assay type: cell-based; details: Homo sapiens, HepG2, 72 h, read-out: Inhibition (%) Hep G2
Protocol: as §1, §2

Huh7 cells = assay: Cytotoxicity test, MTT assay; assay type: cell-based
Protocol: as §1, §2

MCF7 cells = assay: Cytotoxicity test, MTT assay; assay type: cell-based
Protocol: as §1, §2

MKN45 cells = assay: Cytotoxicity test, MTT assay; assay type: cell-based
Protocol: as §1, §2

THP-1 cells = assay: Cytotoxicity test, MTT assay; assay type: cell-based; details: Homo sapiens, THP-1, 72 h, read-out: Inhibition (%) THP -1
Protocol: as §1, §2

hepatitis B virus [4] = assay: Mouse venous hypertension model (genotype A), serum HBsAg by ELISA, dose groups (Example 12); details: dose higher than 50 mg/day (converted adult dose), once a day oral gavage, seven days of administration, Figure 15
Protocol: Six-week-old male C57 mice were rapidly injected with 10µg/mouse of viral genomic DNA (genotype A) by tail vein injection in a short period. Viral infection was established using a venous hypertension model and randomly divided into groups. […] At the same time, a blank control was set up, and oral administration in uninfected mice was equivalent to the model group.
On days 1, 3, and 7 of administration, an appropriate amount of blood was collected from the tail vein of mice in each group. On day 9, the remaining peripheral blood was collected after the mice were sacrificed. All blood samples were centrifuged to obtain serum, divided into two portions. One was used to detect the concentration of HBsAg by ELISA, and the other was used to detect the enzyme activity of alanine aminotransferase (ALT) by alanine aminotransferase kit (colorimetric method) (Nanjing Jiancheng Bioengineering Institute).

[5] = Homo sapiens, HCT-116, 72 h, read-out: Inhibition (%) HCT-116
[6] = Homo sapiens, Huh-7, 72 h, read-out: Inhibition (%) Hu h7
[7] = Homo sapiens, MCF7, 72 h, read-out: Inhibition (%) MC F7
[8] = Homo sapiens, MKN-45, 72 h, read-out: Inhibition (%) MKN 45

CC(C)c1ccc2oc3nc(N)c(C(=O)O)cc3c(=O)c2c1 [amlexanox, Amlexanox] was tested, and the “concentration of hepatitis B virus core antigen (HBeAg) in peripheral blood” value (hepatitis B virus [1]) was “reduced hepatitis B virus core antigen levels in a mouse model of venous hypertension, and its effect was comparable to that of lamivudine”, the “HBV DNA (cccDNA, core particle DNA, viral DNA in cell culture supernatant)” value (hepatitis B virus [2]) was “significantly inhibits hepatitis B virus replication in the HepAD38 cell model” and the “HBsAg concentration in culture supernatant” value (hepatitis B virus [3]) was “significantly reduce HBsAg level”. For the same molecule, the inhibition at 3.125 µM (293 cells) was 0%, the inhibition at 6.25 µM (293 cells) was 0% and the inhibition at 12.5 µM (293 cells) was 0%. The inhibition at 25 µM (293 cells) was 0%, the inhibition at 50 µM (293 cells) was 0% and the inhibition at 100 µM (293 cells) was 11.3%. It also gave an inhibition at 3.125 µM (A549 cells) of 3.55%, an inhibition at 6.25 µM (A549 cells) of 1.31% and an inhibition at 12.5 µM (A549 cells) of 0.65%. It also gave an inhibition at 25 µM (A549 cells) of 0%, an inhibition at 50 µM (A549 cells) of 1.08% and an inhibition at 100 µM (A549 cells) of 4.54%. For the same molecule, the cytotoxicity (HCT-116 cells; HCT-116, 100 µM, 72h) was “some cytotoxicity”, the inhibition at 3.125 µM (HCT-116 cells; [5]) was 0% and the inhibition at 6.25 µM (HCT-116 cells; [5]) was 0%. The inhibition at 12.5 µM (HCT-116 cells; [5]) was 0.11%, the inhibition at 25 µM (HCT-116 cells; [5]) was 1.17% and the inhibition at 50 µM (HCT-116 cells; [5]) was 6.41%. The inhibition at 100 µM (HCT-116 cells; [5]) was 31.1%, the inhibition at 3.125 µM (Hela cells) was 3.08% and the inhibition at 6.25 µM (Hela cells) was 2.48%. The inhibition at 12.5 µM (Hela cells) was 1.7%, the inhibition at 25 µM (Hela cells) was 0.79% and the inhibition at 50 µM (Hela cells) was 1.89%. It also gave an inhibition at 100 µM (Hela cells) of 6.15%, an inhibition at 3.125 µM (HepG2 cells) of 0% and an inhibition at 6.25 µM (HepG2 cells) of 0%. It also gave an inhibition at 12.5 µM (HepG2 cells) of 0%, an inhibition at 25 µM (HepG2 cells) of 0% and an inhibition at 50 µM (HepG2 cells) of 0%. It also gave an inhibition at 100 µM (HepG2 cells) of 4.8%, an inhibition at 3.125 µM (Huh7 cells; [6]) of 0% and an inhibition at 6.25 µM (Huh7 cells; [6]) of 7.28%. It also gave an inhibition at 12.5 µM (Huh7 cells; [6]) of 15%, an inhibition at 25 µM (Huh7 cells; [6]) of 18.1% and an inhibition at 50 µM (Huh7 cells; [6]) of 26.2%. The inhibition at 100 µM (Huh7 cells; [6]) was 35.2%, the cytotoxicity (Huh7 cells; Huh7, 100 µM, 72h) was “some cytotoxicity” and the inhibition at 3.125 µM (MCF7 cells; [7]) was 1.03%. The inhibition at 6.25 µM (MCF7 cells; [7]) was 0.86%, the inhibition at 12.5 µM (MCF7 cells; [7]) was 1.22% and the inhibition at 25 µM (MCF7 cells; [7]) was 3.8%. For the same molecule, the inhibition at 50 µM (MCF7 cells; [7]) was 16.4%, the inhibition at 100 µM (MCF7 cells; [7]) was 43.5% and the cytotoxicity (MCF7 cells; MCF7, 100 µM, 72h) was “some cytotoxicity”. It also gave an inhibition at 3.125 µM (MKN45 cells; [8]) of 0%, an inhibition at 6.25 µM (MKN45 cells; [8]) of 3.61% and an inhibition at 12.5 µM (MKN45 cells; [8]) of 4.9%. The inhibition at 25 µM (MKN45 cells; [8]) was 9.22%, the inhibition at 50 µM (MKN45 cells; [8]) was 13.9% and the inhibition at 100 µM (MKN45 cells; [8]) was 30.9%. For the same molecule, the cytotoxicity (MKN45 cells; MKN45, 100 µM, 72h) was “some cytotoxicity”, the inhibition at 3.125 µM (THP-1 cells) was 0% and the inhibition at 6.25 µM (THP-1 cells) was 0%. It also gave an inhibition at 12.5 µM (THP-1 cells) of 0%, an inhibition at 25 µM (THP-1 cells) of 0% and an inhibition at 50 µM (THP-1 cells) of 0%. For the same molecule, the inhibition at 100 µM (THP-1 cells) was 7.44% and the “concentration of HBsAg in serum” value (hepatitis B virus [4]) was “significantly reduced surface antigen (HBsAg) levels”.
